Laboratory results from ChEMBL document CHEMBL1129046, “Structure-activity relationships of the antimalarial agent artemisinin. 4. Effect of substitution at C-3” (1996).

How the values were obtained:
Plasmodium falciparum [1] = assay: Relative in vitro activity against drug-resistant Plasmodium falciparum D6; type: functional
Plasmodium falciparum [2] = assay: Relative in vitro activity against drug-resistant Plasmodium falciparum W-6; type: functional

Compound | Relative activity (Plasmodium falciparum [1]) | Relative activity (Plasmodium falciparum [2])
CC(C)C[C@@]12CC[C@H]3[C@H](C)CC[C@H]4CC(=O)O[C@H](O1)[C@]43OO2 | 53 | 45
CCCC[C@H]1C(=O)O[C@@H]2O[C@@]3(CCCC)CC[C@H]4[C@H](C)CC[C@@H]1[C@@]24OO3 | 28 | 33
CCOC(=O)CC[C@@]12CC[C@H]3[C@H](C)CC[C@H]4CC(=O)O[C@H](O1)[C@]43OO2 | 232 | 232
CCC[C@@]12CC[C@H]3[C@H](C)CC[C@H]4CC(=O)O[C@H](O1)[C@]43OO2 | 2102 | 673
CC[C@@]12CC[C@H]3[C@H](C)CC[C@H]4CC(=O)O[C@H](O1)[C@]43OO2 | 88 | 112
CCCC[C@@]12CC[C@H]3[C@H](C)CC[C@H]4CC(=O)O[C@H](O1)[C@]43OO2 | 20 | 18
CCCC[C@H]1C(=O)O[C@@H]2O[C@@]3(CCCc4ccc(Cl)cc4)CC[C@H]4[C@H](C)CC[C@@H]1[C@@]24OO3 | 43 | 53
CCCC[C@H]1C(=O)O[C@@H]2O[C@@]3(CCc4ccccc4)CC[C@H]4[C@H](C)CC[C@@H]1[C@@]24OO3 | 1 | 1
C[C@@H]1CC[C@H]2CC(=O)O[C@@H]3O[C@@]4(CCCCc5ccccc5)CC[C@@H]1[C@@]23OO4 | 220 | 281
C[C@@H]1CC[C@H]2[C@@H](C)C(=O)O[C@@H]3O[C@@]4(C)CC[C@@H]1[C@]32OO4 [ARTEMISININ] | 100 | 100
C[C@@H]1CC[C@H]2CC(=O)O[C@@H]3O[C@@]4(CCCc5ccc(Cl)cc5)CC[C@@H]1[C@@]23OO4 | 114 | 127
CCCC[C@H]1C(=O)O[C@@H]2O[C@@]3(CCC(=O)OCC)CC[C@H]4[C@H](C)CC[C@@H]1[C@@]24OO3 | 1382 | 2285
CCCC[C@H]1C(=O)O[C@@H]2O[C@@]3(CCCCc4ccccc4)CC[C@H]4[C@H](C)CC[C@@H]1[C@@]24OO3 | 39 | 48
C[C@@H]1CC[C@H]2CC(=O)O[C@@H]3O[C@@]4(CCc5ccccc5)CC[C@@H]1[C@@]23OO4 | 3 | 1
CCCC[C@H]1C(=O)O[C@@H]2O[C@@]3(CC)CC[C@H]4[C@H](C)CC[C@@H]1[C@@]24OO3 | 184 | 257
